Read-outs that look alike come from different tables or passages of the source.
What was measured:
[1] = system: SSRI-resistant outpatients with major depressive disorder (MDD);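 for Cardiovascular side effects, Frequency: adverse events recorded at every visit with the SAFTEE-SI in a 60-day double-blind sequential parallel trial of two 30-day phases, visits every 10 days, placebo as comparator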;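 for adverse side effect when administered with an SSRI: adverse events recorded at every visit with the SAFTEE-SI in a 60-day double-blind sequential parallel trial of two 30-day phases, visits every 10 days, placebo as comparator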
Description: Using the sequential parallel design […] For those randomly assigned to the placebo/placebo sequence, both responders and non-responders to placebo during the first phase (n=25) remain on placebo during the second phase. […] Data from the previous double-blind, placebo-controlled study (Trial 1) can be pooled into the instant study (Trial 2) to provide a more accurate estimate of the placebo effect size, with a weighted average from the two Phases 1 (one from Trial 1 and one from Trial 2) and two Phases 2 (one from Trial 1 and one from Trial 2).
The primary efficacy measure can include the change in 17-item Hamilton Rating Scale for Depression (HAM-D-17) score. […] A remission is, for example, defined as a HAM-D-17 score less than 8 at endpoint. Secondary measures of efficacy can include change in CGI-severity, with “clinical response defined” as CGI-S of 1 or 2 at endpoint. Patients with a CGI-I score greater than 5 at any post baseline visit or a 50 percent or greater worsening of depressive symptoms from baseline to that visit are discontinued from the study. Subjects are also discontinued from the study with any emergence of suicidality, homicidality, mania, or psychosis. Additional exemplary instruments that can be administered according to the study schedule include the following: • (1) Structured Clinical Interview for DSM-IV: The SCID-I/P, administered by the clinician, proceeds by modules to diagnose the different Axis I disorders. Questions are asked exactly as written, and each is based on the individual criteria from DSM-IV. Answers are generally rated on a scale of 1-3 (1=doubtful, 2=probable, 3=definite), and, based on the number of positive answers, a diagnosis is determined by a clinician. While the entire SCID-I/P is administered at screen, the mood module is administered at each follow up visit. • (2) The MGH Antidepressant Treatment History Questionnaire (MGH-ATR): The MGH-ATR provides specific criteria for the adequate dose and adequate length of a trial for it to be considered a failure, thus allowing clinicians to systematically collect data aimed at assessing the degree of treatment-resistance of the current major depressive episode. • (3) The 28-item Hamilton Depression Scale (HAM-D-28): This version allows scoring of the HAM-D-17, 21-, 25-, and 28-item scales. This instrument is completed by the clinician by using a structured interview and defined anchor points, and aims to quantify the degree of depression over the past 7 days. The HAM-D is the most widely studied instrument for depression, and its reliability and validity are high. • (4) Clinical Global Impressions—Severity and Improvement (CGI-S, CGI-I): These two instruments are scored 1-7 by the clinician based on assessment of the patient's clinical status. They measure, based on history and scores on other instruments: a) Depressive severity (CGI-S) and b) Clinical Improvement (CGI-I). […] Safety Measurements
Data are entered and error-checked at each clinical site involved in the study. Study staff and subjects may have the option to enter self-evaluations into the system directly using DatStat Illume™. The process of data entry is supervised by the DCRP staff. Once the data set is entered and checked, analyses are conducted. Both a completer analysis of all patients finishing the trial and an intent-to-treat analysis examining all patients enrolled into the trial are used to define the severity of depression at endpoint. Examination of both study completers and all patients randomized can provide the broadest assessment of the effects of treatment in trials of such kind. The data from Trial 2 can be pooled with those from Trial 1 with the sequential parallel comparison design, to provide an estimate of the placebo response based on a larger sample size. […] Let p1, q1 be the response rates to the first administration of drug and placebo respectively and let p2, q2 be the responses rates to the second treatment.

[2] = system: SSRI-resistant outpatients with major depressive disorder (MDD); settings: for Cardiovascular side effects, NNH / Gastrointestinal side effects, NNH / Infectious side effects, NNH / Miscellaneous side effects, NNH / Psychological side effects, NNH / Sexual side effects, NNH / Sleep side effects, NNH / Somatic side effects, NNH: versus placebo;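 for Cardiovascular side effects, Frequency: adverse events recorded at every visit with the SAFTEE-SI in a 60-day double-blind sequential parallel trial of two 30-day phases, visits every 10 days, placebo as comparator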;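 for adverse side effect when administered with an SSRI: adverse events recorded at every visit with the SAFTEE-SI in a 60-day double-blind sequential parallel trial of two 30-day phases, visits every 10 days, placebo as comparator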
Description: The study involved the enrollment of a total of 148 patients with MDD over the course of 12 months across 10 medical centers or hospitals in the United States. […] In accordance with the sequential parallel design [51], the 60-day, double-blind treatment was divided into two phases of 30 days each, with assessments performed every 10 days.

[3] = system: MDD patients positive or negative for SNP biomarkers; settings: subjects positive for MTR 2756 AG or GG versus negative
Description: A responder is indicated by a reduction of at least about 50% in HAMD-28 over the evaluation period.

[4] = Pooled Phase 1 and 2, 7.5 mg/day + SSRI

CN1c2c(nc(N)[nH]c2=O)NC[C@@H]1CNc1ccc(C(=O)N[C@@H](CCC(=O)O)C(=O)O)cc1 [6(S)-5-MTHF, 6(S)-5-methyltetrahydrofolate]
efficacy as an adjunct to the SSRIs ([1]; 7.5 mg/day): not effective | CGI-S Mean score reduction ([1]; Phase 1, 7.5 mg/day + SSRI): −0.5 | HDRS-17 % Remission ([1]; Phase 1, 7.5 mg/day + SSRI): 11.1% | HDRS-17 % Response ([1]; Phase 1, 7.5 mg/day + SSRI): 19.4% | HDRS-17 Mean score reduction ([1]; Phase 1, 7.5 mg/day + SSRI): −4.3 | QIDS-SR % Remission ([1]; Phase 1, 7.5 mg/day + SSRI): 0.0% | QIDS-SR % Response ([1]; Phase 1, 7.5 mg/day + SSRI): 25.0% | QIDS-SR Mean score reduction ([1]; Phase 1, 7.5 mg/day + SSRI): −4.6 | CGI-S Mean score reduction ([1]; Phase 2, 7.5 mg/day + SSRI): −0.5 | HDRS-17 % Remission ([1]; Phase 2, 7.5 mg/day + SSRI): 14.2% | HDRS-17 % Response ([1]; Phase 2, 7.5 mg/day + SSRI): 17.1% | HDRS-17 Mean score reduction ([1]; Phase 2, 7.5 mg/day + SSRI): −3.1 | QIDS-SR % Remission ([1]; Phase 2, 7.5 mg/day + SSRI): 8.5% | QIDS-SR % Response ([1]; Phase 2, 7.5 mg/day + SSRI): 8.5% | QIDS-SR Mean score reduction ([1]; Phase 2, 7.5 mg/day + SSRI): −1.9 | CGI-S Mean score reduction [1, 4]: −0.53 | HDRS-17 % Remission [1, 4]: 12.7% | HDRS-17 % Response [1, 4]: 18.3% | HDRS-17 Mean score reduction [1, 4]: −3.70 | QIDS-SR % Remission [1, 4]: 4.3% | QIDS-SR % Response [1, 4]: 16.8% | QIDS-SR Mean score reduction [1, 4]: −3.25 | increase in response and remission rate versus placebo with the SSRIs ([1]; Trial 1, 15 mg/day in second phase): at least 2 fold | response and remission rate ([1]; Trial 1, drug/drug sequence, dose increased to 15 mg/day in second phase, placebo 9%, p=0.1): 24% | adverse side effect when administered with an SSRI ([2]; Trial 1): does not appear to cause any adverse side effect | Cardiovascular side effects, Frequency ([2]; Trial 1, 7.5 mg + SSRI, n = 94): 0 | Cardiovascular side effects, Frequency (%) ([2]; Trial 1, 7.5 mg + SSRI, n = 94): (0%) | Gastrointestinal side effects, Frequency ([2]; Trial 1, 7.5 mg + SSRI, n = 94): 9 | Gastrointestinal side effects, Frequency (%) ([2]; Trial 1, 7.5 mg + SSRI, n = 94): (9.6%) | Infectious side effects, Frequency ([2]; Trial 1, 7.5 mg + SSRI, n = 94): 6 | Infectious side effects, Frequency (%) ([2]; Trial 1, 7.5 mg + SSRI, n = 94): (6.4%) | Miscellaneous side effects, Frequency ([2]; Trial 1, 7.5 mg + SSRI, n = 94): 1 | Miscellaneous side effects, Frequency (%) ([2]; Trial 1, 7.5 mg + SSRI, n = 94): (1.1%) | Psychological side effects, Frequency ([2]; Trial 1, 7.5 mg + SSRI, n = 94): 2 | Psychological side effects, Frequency (%) ([2]; Trial 1, 7.5 mg + SSRI, n = 94): (2.1%) | Sexual side effects, Frequency ([2]; Trial 1, 7.5 mg + SSRI, n = 94): 0 | Sexual side effects, Frequency (%) ([2]; Trial 1, 7.5 mg + SSRI, n = 94): (0%) | Sleep side effects, Frequency ([2]; Trial 1, 7.5 mg + SSRI, n = 94): 3 | Sleep side effects, Frequency (%) ([2]; Trial 1, 7.5 mg + SSRI, n = 94): (3.2%) | Somatic side effects, Frequency ([2]; Trial 1, 7.5 mg + SSRI, n = 94): 9 | Somatic side effects, Frequency (%) ([2]; Trial 1, 7.5 mg + SSRI, n = 94): (9.6%) | Cardiovascular side effects, NNH ([2]; Trial 1, 7.5 mg + SSRI): <placebo | Gastrointestinal side effects, NNH ([2]; Trial 1, 7.5 mg + SSRI): <placebo | Infectious side effects, NNH ([2]; Trial 1, 7.5 mg + SSRI): <placebo | Miscellaneous side effects, NNH ([2]; Trial 1, 7.5 mg + SSRI): <placebo | Psychological side effects, NNH ([2]; Trial 1, 7.5 mg + SSRI): <placebo | Sexual side effects, NNH ([2]; Trial 1, 7.5 mg + SSRI): =placebo | Sleep side effects, NNH ([2]; Trial 1, 7.5 mg + SSRI): <placebo | Somatic side effects, NNH ([2]; Trial 1, 7.5 mg + SSRI): <placebo | Cardiovascular side effects, Frequency ([2]; Trial 1, 15 mg + SSRI, n = 30): 2 | Cardiovascular side effects, Frequency (%) ([2]; Trial 1, 15 mg + SSRI, n = 30): (6.7%) | Gastrointestinal side effects, Frequency ([2]; Trial 1, 15 mg + SSRI, n = 30): 3 | Gastrointestinal side effects, Frequency (%) ([2]; Trial 1, 15 mg + SSRI, n = 30): (10.0%) | Infectious side effects, Frequency ([2]; Trial 1, 15 mg + SSRI, n = 30): 2 | Infectious side effects, Frequency (%) ([2]; Trial 1, 15 mg + SSRI, n = 30): (6.7%) | Miscellaneous side effects, Frequency ([2]; Trial 1, 15 mg + SSRI, n = 30): 2 | Miscellaneous side effects, Frequency (%) ([2]; Trial 1, 15 mg + SSRI, n = 30): (6.7%) | Psychological side effects, Frequency ([2]; Trial 1, 15 mg + SSRI, n = 30): 2 | Psychological side effects, Frequency (%) ([2]; Trial 1, 15 mg + SSRI, n = 30): (6.7%) | Sexual side effects, Frequency ([2]; Trial 1, 15 mg + SSRI, n = 30): 0 | Sexual side effects, Frequency (%) ([2]; Trial 1, 15 mg + SSRI, n = 30): (0%) | Sleep side effects, Frequency ([2]; Trial 1, 15 mg + SSRI, n = 30): 2 | Sleep side effects, Frequency (%) ([2]; Trial 1, 15 mg + SSRI, n = 30): (6.7%) | Somatic side effects, Frequency ([2]; Trial 1, 15 mg + SSRI, n = 30): 3 | Somatic side effects, Frequency (%) ([2]; Trial 1, 15 mg + SSRI, n = 30): (10.0%) | Cardiovascular side effects, NNH ([2]; Trial 1, 15 mg + SSRI): <placebo | Gastrointestinal side effects, NNH ([2]; Trial 1, 15 mg + SSRI): <placebo | Infectious side effects, NNH ([2]; Trial 1, 15 mg + SSRI): <placebo | Miscellaneous side effects, NNH ([2]; Trial 1, 15 mg + SSRI): <placebo | Psychological side effects, NNH ([2]; Trial 1, 15 mg + SSRI): <placebo | Sexual side effects, NNH ([2]; Trial 1, 15 mg + SSRI): =placebo | Sleep side effects, NNH ([2]; Trial 1, 15 mg + SSRI): <placebo | Somatic side effects, NNH ([2]; Trial 1, 15 mg + SSRI): <placebo | treatment effect within genetic modifiers (race, age, sex, BMI) [3]: statistically significant treatment effect

Source: patent publication US9546401B2, “Assays and methods for selecting a treatment regimen for a subject with depression” (The General Hospital Corporation, priority 2011, dated 2017)
